The supplement of paper PMC6045584
± gives the standard deviation of the averaged measurements.

How the values were obtained:
DASATINIB = compound: Cc1nc(Nc2ncc(C(=O)Nc3c(C)cccc3Cl)s2)cc(N2CCN(CCO)CC2)n1 [DASATINIB]; test: surviving fraction relative to DMSO-only wells; higher = less growth inhibition; settings: exposure time: 5 days
Procedure, shortened: (§1)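 Continuous five-day exposure to inhibitors at 0.5, 1, 5, 10, 50, 100, 500 and 1000 nM started 24 hours after log-phase tumour cell lines were seeded at 250–500 cells per well in 384-well plates. Luminescence was read after 10 minutes at room temperature. Viability is given as surviving fraction, meaning CellTiter-Glo luminescence normalised to the median of DMSO-only wells.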

XAV-939 = compound: Oc1nc(-c2ccc(C(F)(F)F)cc2)nc2c1CSCC2 [XAV-939]; test: as above; settings: exposure time: 5 days
Procedure, shortened: as §1

| Test System | surviving fraction (DASATINIB; 0.5 nM) | surviving fraction (DASATINIB; 1 nM) | surviving fraction (DASATINIB; 5 nM) | surviving fraction (DASATINIB; 10 nM) | surviving fraction (DASATINIB; 50 nM) | surviving fraction (DASATINIB; 100 nM) | surviving fraction (DASATINIB; 500 nM) | surviving fraction (DASATINIB; 1000 nM) | surviving fraction (XAV-939; 0.5 nM) | surviving fraction (XAV-939; 1 nM) | surviving fraction (XAV-939; 5 nM) | surviving fraction (XAV-939; 10 nM) | surviving fraction (XAV-939; 50 nM) | surviving fraction (XAV-939; 100 nM) | surviving fraction (XAV-939; 500 nM) | surviving fraction (XAV-939; 1000 nM) |
| --- | --- | --- | --- | --- | --- | --- | --- | --- | --- | --- | --- | --- | --- | --- | --- | --- |
| HUO3N1 BONE | 0.8227 ± 0.0049 | 0.747 ± 0.029 | 0.568 ± 0.083 | 0.457 ± 0.032 | 0.331 ± 0.0068 | 0.2553 ± 0.0021 | 0.232 ± 0.013 | 0.215 ± 0.0027 | 1.03 ± 0.037 | 1.07 ± 0.12 | 1.04 ± 0.032 | 1.06 ± 0.048 | 1.09 ± 0.064 | 1.08 ± 0.034 | 0.761 ± 0.043 | 0.759 ± 0.0095 |
| JIMT1 BREAST | 0.859 ± 0.034 | 0.844 ± 0.033 | 0.802 ± 0.034 | 0.68 ± 0.024 | 0.394 ± 0.041 | 0.182 ± 0.018 | 0.0683 ± 0.012 | 0.0518 ± 0.0019 | 1 ± 0.013 | 1.03 ± 0.027 | 0.9983 ± 0.008 | 0.995 ± 0.031 | 1 ± 0.05 | 1.04 ± 0.025 | 0.934 ± 0.032 | 0.943 ± 0.0033 |
| JURKAT HAEMATOPOIETIC AND LYMPHOID TISSUE | 1.033 ± 0.0046 | 0.984 ± 0.034 | 0.927 ± 0.011 | 0.892 ± 0.011 | 0.886 ± 0.043 | 0.785 ± 0.024 | 0.614 ± 0.028 | 0.432 ± 0.016 | 1.03 ± 0.011 | 1.051 ± 0.0042 | 1.04 ± 0.013 | 1.03 ± 0.03 | 0.9907 ± 0.0059 | 1 ± 0.018 | 0.987 ± 0.02 | 0.981 ± 0.029 |
| KPD BONE | 0.909 ± 0.063 | 0.851 ± 0.053 | 0.781 ± 0.044 | 0.73 ± 0.0072 | 0.579 ± 0.039 | 0.481 ± 0.03 | 0.39 ± 0.016 | 0.336 ± 0.025 | 0.937 ± 0.07 | 0.981 ± 0.061 | 0.999 ± 0.048 | 0.995 ± 0.043 | 0.992 ± 0.058 | 0.926 ± 0.035 | 0.883 ± 0.035 | 0.828 ± 0.061 |
| LM7 BONE | 0.732 ± 0.032 | 0.694 ± 0.031 | 0.616 ± 0.044 | 0.576 ± 0.028 | 0.443 ± 0.036 | 0.338 ± 0.014 | 0.206 ± 0.031 | 0.211 ± 0.008 | 0.964 ± 0.078 | 1.03 ± 0.062 | 1.05 ± 0.075 | 1.131 ± 0.011 | 1.08 ± 0.11 | 1.08 ± 0.048 | 0.915 ± 0.068 | 0.877 ± 0.045 |
